Several values for one entry are separate records, joined by “and”; a condition that tells them apart may be missing. Identical values can stand only once.
What was measured:
[1] = system: MCF-7 human mammary cells; assay: Effect on the proliferation of mammary cells (MCF-7, determination of the DNA); assay type: cell-based; design: key: Agonist: the effect of the oestradiol at 10^−10M (cell growth in the presence of oestradiol less cell growth in the presence of the solvent) determines the 100% agonist activity; Inactive: molecules inducing an identical cell growth to that observed with the solvent alone are classified as “inactive”; Inhibitor: those inducing a lower cell growth to that observed with the solvent are classified as “inhibitor”; conditions: 7 days culture in steroid-free medium; compared with oestradiol at 10^−10M = 100% agonist activity
Protocol: Effect on the Proliferation of Mammary Cells The proliferative activity of the molecules is studied in comparison to that of oestradiol on MCF-7 human mammary cells in culture. […] Cells undergo this severance two days before the start of the test. After 7 days culture in the presence of the products to be studied, the cell proliferation is evaluated by determination of the DNA. In each test, the effect of the oestradiol at 10^−10M (cell growth in the presence of oestradiol less cell growth in the presence of the solvent) determines the 100% agonist activity. The activity of the molecules is evaluated in comparison to this internal control.

[2] = system: ovariectomized female rat; assay: Bone impact study in the ovariectomized female rat at the age of 3 months (tibia BMD, uterus weight, serum cholesterol); assay type: in vivo; conditions: OVX rat; for UTERUS Weight % / Cholesterol %: 4 weeks; for UTERUS Weight %: increase in % of uterus weight of OVX animals receiving solvent; for Cholesterol %: serum cholesterol change in % relative to OVX animals receiving solvent; for TIBIA BONE BMD %: OVX=0, SHAM=100
Protocol: Bone impact study of a product in the ovariectomized female rat at the age of 3 months The compounds are tested in order to determine their effect on the bone mass and on the formation and resorption activity in the model of the ovariectomized rat at the age of 3 months. The animals are treated in a preventive fashion. [table] 1—Product to be tested: Product of Example 1. vehicle(s): corn oil, 0.5% methylcellulose number of administrations: once/day; 5 days/week for 4 weeks administration route: oral route for the product 2—Reference product: 17β oestradiol is administered by subcutaneous route at a dose of 0.1 or 0.01 mg/kg/d in solution in a mixture of corn oil-benzyl alcohol (99:1, v/v) under a volume of 0.2 ml/kg. The study is carried out with female rats ovariectomized at the age of 3 months. The animals are kept in an air-conditioned room (temperature 20° C.±2° C.) and grouped by 4 into boxes. The animals receive, ad libitum, demineralized water and compressed foods (pellets: AO4CR-10 UAR). The 3 month old female rats weighing approximately 250 g are ovariectomized under anaesthesia with Imalgene 1000, at a dose of 100 mg/kg by intraperitoneal route (i.p.) and under a volume of 1 ml/kg. They also receive Nembutal (3 mg/kg i.p. under a volume of 0.3 ml/kg). The effects of the products are determined in a preventive treatment. They are administered immediately after the ovariectomy. Animals are distributed into groups of 8. Group 1: “SHAM” control rats receiving the vehicle or vehicles. Group 2: “OVX” control rats receiving the vehicle or vehicles. Groups X: “OVX” rats receiving respectively defined doses of the product or products to be tested. At the end of 4 weeks (duration of the study) the animals are decapitated by guillotine. The serums collected after centrifugation are preserved at −20° C. A lipidic balance will be established from the serous determinations of total cholesterol, of triglycerides and of phospholipids on a 500 μl aliquot of serum. Lowering of the serous cholesterol level is expressed in % relative to the level shown by the ovariectomized animals receiving only the solvent. The uteri are removed. The latter are weighed. The increase in weight is expressed in % of the weight of the uterus of ovariectomized animals receiving only the solvent. The bone mass (BMD or bone mineral density) is measured by biphotonic dual energy X-ray absorptiometry (DEXA). The measurements are carried out on bone excized and cleaned of all soft tissue. The BMD (bone mineral density) is measured on the whole bone as well as on the metaphyseal part at the level of the proximal extremity for the left tibia. This zone is defined as being the region which is richest in trabecular bone; and consequently, is the most sensitive to variations in bone volume and bone mineral density. The results are expressed in % according to the formula: […]

[3] = 0.3 mg/kg po, listed as Ex. 1, 0.3 mg/kg

With `C[C@]12C[C@H](c3ccc(OCCN4CCCCC4)cc3)[C@@H]3c4ccc(O)cc4CC[C@H]3[C@@H]1CC[C@H]2F.Cl` [Example 2, 17 alpha-fluoro-11-beta-[4-[2-(1-piperidinyl)ethoxy]phenyl]-estra-1,3,5(10)-trien-3-ol hydrochloride] the “ACTIVITY (proliferative activity on MCF-7 cells)” value (“ACTIVITY” for short) [1] was “Inactive”.

Work on `CC1CCN(CCOc2ccc([C@H]3C[C@]4(C)[C@H](F)CC[C@H]4[C@@H]4CCc5cc(O)ccc5[C@H]43)cc2)CC1.Cl` yielded a melting point of 200 °C.

In the case of `C[C@]12C[C@H](c3ccc(OCCN4CCCCC4)cc3)[C@@H]3c4ccc(O)cc4CC[C@H]3[C@@H]1CC=C2I.Cl`, the melting point is reported as 260 °C.

With `C[C@]12C[C@H](c3ccc(OCCN4CCCCC4)cc3)[C@@H]3c4ccc(O)cc4CC[C@H]3[C@@H]1CC[C@H]2F` [Example 1, 17 alpha-fluoro-11 beta-[4-[2-(1-piperidinyl)ethoxy]phenyl]-estra-1,3,5(10)-trien-3-ol] the “UTERUS Weight %” value ([2]; 0.1 mg/kg po) was 67%, the Cholesterol % ([2]; 0.1 mg/kg po) was −49% and the “TIBIA BONE BMD %” value ([2]; 0.1 mg/kg po, once/day 5 days/week 4 weeks) was 57%. For the same compound, the “UTERUS Weight %” value [2, 3] was 70% and 41%, the Cholesterol % [2, 3] was −59% and −51% and the “TIBIA BONE BMD %” value ([2]; 0.3 mg/kg po, once/day 5 days/week 4 weeks, listed as Ex. 1, 0.3 mg/kg) was 71% and 73%. The “UTERUS Weight %” value ([2]; 1.0 mg/kg po) was 93%, the Cholesterol % ([2]; 1.0 mg/kg po) was −61% and the “TIBIA BONE BMD %” value ([2]; 1.0 mg/kg po, once/day 5 days/week 4 weeks) was 72%. The “ACTIVITY” value [1] was “Inactive”.

For `COc1ccc2c(c1)CC[C@@H]1[C@@H]2[C@@H](c2ccc(OCCN3CCCC3)cc2)C[C@]2(C)[C@H](F)CC[C@@H]12`, the melting point was 132 °C.

For `C[C@]12CC[C@@H]3c4ccc(O)cc4CC[C@H]3[C@@H]1CC[C@@H]2O` [Oestradiol, 17β oestradiol, reference compound], the “TIBIA BONE BMD %” value ([2]; 0.01 mg/kg s.c., 4 weeks preventive) was 95%, the “UTERUS Weight %” value ([2]; 0.01 mg/kg s.c.) was 317% and the Cholesterol % ([2]; 0.01 mg/kg s.c.) was −16%. For the same compound, the “TIBIA BONE BMD %” value ([2]; 0.1 mg/kg s.c., 4 weeks preventive) was 139%, the “UTERUS Weight %” value ([2]; 0.1 mg/kg s.c.) was 220% and the Cholesterol % ([2]; 0.1 mg/kg s.c.) was −3%. For the same compound, the “ACTIVITY” value [1] was “Agonist”.

Source: US6423700B1, “17-halogenated 19-nor steroids, method and intermediates for preparing same, use as medicines and pharmaceutical compositions containing same” (Aventis Pharma S.A., priority 1998, dated 2002)
